According to US9157904B2, “Wnt antagonists and methods of treatment and screening” (OncoMed Pharmaceuticals, Inc., priority 2010, dated 2015):
“And” between values parts separate entries of the source, which are not always exact repeats. Equal entries are not always repeated.

Key:
PN4 pancreas tumor = PN4 pancreas tumor xenograft, tumor growth; format: in vivo, NOD/SCID mice; conditions: FZD8-Fc 15 mg/kg i.p. twice weekly, vs control antibody
Method: The anti-tumor activity of FZD8-Fc (54F03) was evaluated in the PN4 pancreas tumor xenograft model. Dissociated OMP-PN4 cells (50,000 per animal) were injected subcutaneously into 6-8 week old male NOD/SCID mice. Tumor growth was monitored weekly and tumor measurements were initiated once tumors were palpable. On day 50, mice with average tumor volumes of 137 mm^3 were randomized into 4 groups of 10 animals each. Animals were injected with either control antibody, FZD8-Fc (15 mg/kg), gemcitabine (2 mg/kg) or a combination of FZD8-Fc and gemcitabine. Administration of the FZD8-Fc and gemcitabine was performed via injection into the intra-peritoneal cavity, once weekly (gemcitabine) or twice weekly (FZD8-Fc). Tumors were measured twice a week and tumor volume was determined using the formula ½(a×b^2); where a=length, and b=breadth. Data are expressed as mean and mean±S.E.M. Group means were compared using Student's two-tailed, unpaired t test.

PN4 tumors = assay: Alcian blue staining of treated PN4 tumors; format: in vivo, NOD/SCID mice; conditions: day 85, vs control antibody or gemcitabine
Method: Increased cell differentiation of PN4 and PN8 tumors with FZD8-Fc treatment. Control and treated tumors from the OMP-PN4 xenograft study described above (Example 3) were harvested at the end of the study (day 85). Tumors were fixed in formalin, embedded in paraffin, and tumor sections of 4 μm thickness were cut. After deparaffinization and hydration, the sections were treated with aqueous acetic acid for 5 minutes at room temperature. The sections were then treated with 1% alcian blue in 3% aqueous acetic acid for 30 minutes and washed with water. Sections were counter-stained in neutral fast red, dehydrated and mounted. Using this method, sialomucins in the tissue samples stain blue and the background appears as pink or red.

PE13 breast tumor = PE13 breast tumor xenograft, tumor growth; format: in vivo, NOD/SCID mice; conditions: FZD8-Fc 5 mg/kg i.p. twice a week, single agent
Method: Dissociated PE13 breast tumor cells (50,000 per animal) were injected subcutaneously into the mammary fat pads of NOD/SCID mice. Mice were monitored weekly and tumors were allowed to grow until they were approximately 106 mm^3. On day 27 post cell injection the mice were randomized into four treatment groups (n=10 mice/group) and treated with control antibody, FZD8-Fc (54F03), taxol or a combination of FZD8-Fc and taxol. Taxol was administered intraperitoneally at a dose of 7.5 mg/kg once a week and FZD8-Fc was administered intraperitoneally at a dose of 5 mg/kg twice a week.

[1] = test system: C28 colon tumor xenografts; assay: C28 colon tumor xenograft, doses and dosing regimen; format: in vivo, NOD/SCID mice; conditions: from day 2
Method: The effect of multiple doses and dosing regimen of FZD8-Fc (54F03) on the growth of C28 colon tumor xenografts was analyzed. Dissociated C28 cells (10,000 per animal) were injected subcutaneously into 6-8 week old male NOD/SCID mice. On day 2, mice were randomized into 6 groups of 10 animals each. Animals were injected with either control antibody or FZD8-Fc at doses of 1.5 mg/kg (twice a week), 5 mg/kg (once and twice a week) and 15 mg/kg (once and twice a week). Administration of the antibody and FZD8-Fc was performed via injection into the intraperitoneal cavity. Tumor growth was monitored weekly and tumor measurements were initiated once tumors were palpable. Tumors were measured twice a week and tumor volume was determined as described herein.

PN21 pancreatic tumors = assay: In vivo limiting dilution assay of treated PN21 tumors; parameters: species or system NOD/SCID mice; conditions: day 72
Excerpt: As described above in Example 3, a limiting dilution assays was used to assess the effect of treatment with FZD8-Fc alone or in combination with gemcitabine on solid tumor cancer stem cells in the PN21 pancreatic tumor model.
Control and treated tumors from the PN21 xenograft study described above were harvested at the end of the study. The tumors were processed and dissociated into single cells. […] The human cells in the suspension were harvested, counted, and stained for cell surface markers and appropriate cell doses (30, 90, and 270 cells) in FACS buffer were mixed in a 1:1 mixture with Matrigel and injected subcutaneously in NOD/SCID mice (10 mice per cell dose per treatment group). […]
At the desired time point, the percentage of mice with detectable tumors was determined in all groups injected with treated tumor cells and compared to the percentage of mice with detectable tumors in control treated cells. For example, the number of mice injected with 125 control antibody-treated tumor cells that have detectable tumors is determined and compared to the number of mice injected with 125 FZD8-Fc treated tumor cells that have detectable tumors.
On day 72 after injection of the cells, tumor take rates in the various groups were determined and the cancer stem cell frequency was calculated using L-Calc™ software (StemCell Technologies Inc.; www.stemcell.com).

[2] = test system: canonical Wnt signaling pathway; assay: Luciferase reporter assay in STF293 cells with Wnt3a-conditioned medium; format: cell-based; conditions: blocking of Wnt3a-induced luciferase in STF293 cells; relative to reference standard set at 100%
Method: The ability of the FZD8-Fc variants to block or inhibit activation of the Wnt signaling pathway was determined in vitro using a luciferase reporter assay. STF293 cells were cultured in DMEM supplemented with antibiotics and 10% FCS. The STF293 cells are stably transfected with a reporter vector containing seven copies of the TCF transcriptional response element linked to a promoter upstream of a firefly luciferase reporter gene. This construct measures the activity of the canonical Wnt signaling pathway. The cells were added to cultures plates at 10,000 cells per well. After an overnight incubation the FZD8-Fc variants or control mouse JAG1-Fc were added in combination with Wnt3a-conditioned medium. The FZD8-Fc variants and JAG1-Fc were used at concentrations of 20, 4, 0.8, 0.16, 0.03, 0.006, 0.0012, and 0.0003 ug/ml. The cells were incubated in 25% Wnt3A-conditioned medium that had been prepared from L cells that stably express Wnt3a. After overnight incubation (approximately 18 hrs), luciferase levels were measured using a Steady-Glo® luciferase assay kit (Promega, Madison, Wis.).
The blocking activity of the FZD8-Fc variants was determined and is presented in Table 3 as relative activity as compared to the same reference standard run in each assay which was set at 100%.

54F03: Fri domain of human FZD8 fused to human IgG1 Fc with GRA linker; SEQ ID NO:1
reduction in tumor growth (PN4 pancreas tumor): 66% | cells expressing sialomucins (alcian blue) (PN4 tumors): increase in cells expressing sialomucins | reduction of tumor growth relative to control antibody (PE13 breast tumor): 20% | reduction of growth over control antibody ([1]; 1.5 mg/kg twice a week i.p.): 52% | reduction in tumor growth over control antibody ([1]; 15 mg/kg twice weekly i.p.): 83% | reduction of cancer stem cell frequency as compared to control antibody (PN21 pancreatic tumors): four-fold | % Relative Activity [2]: 107% and 143%
